Experimental data as given in patent publication US6107345A, “Benzocyclobutane compounds” (Adir et Compagnie, priority 1998, dated 2000).

Experiments:
serotonin reuptake sites = target: T1, serotonin reuptake sites (Rattus norvegicus, UniProt P31652); assay: Determination of the affinity for serotonin reuptake sites ([3H]-paroxetine competition); format: binding; details: frontal cortex membranes, 1.0 nM [3H]-paroxetine, 2 hours at 25° C., pH 7.4; read-out: pKi, serotonin reuptake sites (converted)
T1 construct: The membranes are prepared from frontal cortex of rate; from tissue; host or cells: frontal cortex membranes (rat, printed 'rate')
T1 sequence (P31652 whole entry): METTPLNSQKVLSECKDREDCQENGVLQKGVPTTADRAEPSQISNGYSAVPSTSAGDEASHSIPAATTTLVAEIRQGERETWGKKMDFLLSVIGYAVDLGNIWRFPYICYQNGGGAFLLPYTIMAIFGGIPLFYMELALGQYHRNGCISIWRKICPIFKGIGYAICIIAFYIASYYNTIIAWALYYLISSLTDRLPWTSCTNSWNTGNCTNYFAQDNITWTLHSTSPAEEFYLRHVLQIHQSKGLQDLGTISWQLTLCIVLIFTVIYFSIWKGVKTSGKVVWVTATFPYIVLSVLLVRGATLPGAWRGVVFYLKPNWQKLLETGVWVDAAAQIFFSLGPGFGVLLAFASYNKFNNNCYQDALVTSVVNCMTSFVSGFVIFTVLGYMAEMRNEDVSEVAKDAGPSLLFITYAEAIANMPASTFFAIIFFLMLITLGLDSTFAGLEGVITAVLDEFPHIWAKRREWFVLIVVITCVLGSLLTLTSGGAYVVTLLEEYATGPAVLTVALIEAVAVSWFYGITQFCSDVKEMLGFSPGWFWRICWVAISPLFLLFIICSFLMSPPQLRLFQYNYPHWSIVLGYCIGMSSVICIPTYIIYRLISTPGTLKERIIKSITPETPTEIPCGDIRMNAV
Description: Determination of the affinity for serotonin reuptake sites
The incubation buffer contains […] TRIS-HCl (pH 7.4), 120 mM NaCl and 5 mM KCl. The non-specific binding is determined using 10 μM citalopram. At the end of the incubation, the incubation medium is filtered and washed three times with 5 ml of cooled buffer. The radioactivity retained on the filters is determined by liquid scintillation counting. The binding isotherms are analysed by non-linear regression to determine the IC50 values. Those values are converted into a dissociation constant (Ki) using the Cheng-Prusoff equation: […]
(§1) The results are expressed in pKi (-log Ki).

mouse [1] = assay: Forced swimming test in the mouse; format: in vivo; details: for Duration of immobility: last 4 minutes (T2-T6)
Description: Forced swimming test in the mouse (Porsolt et al., 1977)
The forced swimming test in the mouse consists of inducing a state of despair in the animal by placing it for 6 minutes in a cylinder full of water, from which it cannot escape. The naive animal struggles vigorously for the first few minutes and then adopts an immobile posture for the last few minutes of the test. Antidepressant products reduce the duration of immobility of the animal during the test.
the animals are male CD (IFFA-CREDO) mice (22-26 g) which, on the day before the test, are placed individually in transparent plastic cages (25×15×14 cm) on sawdust, with food and drink as desired. On the day of the test, 30 minutes after treatment (product or solvent, administered sub-cutaneously), each mouse is plunged for 6 minutes (T0-T6) in a glass cylinder (23.5 cm in height, 11.5 cm in diameter) filled to a height of 6 centimeters with water maintained at 24±0.5° C. The total duration of immobility (sec.) of the animal during the last 4 minutes of the test (T2-T6) is observed: a mouse is considered to be immobile when it is floating in the water, making only small movements to keep its head out of the water.
The differences between the treated groups (product) and the control group (solvent) are evaluated statistically by variance analysis followed by Dunnett's test wherein p<0.05.

mouse [2] = assay: Suspension-by-the-tail test in the mouse; format: in vivo; details: for Immobility: 6 minutes of the test
Description: Suspension-by-the-tail test in the mouse
In this variation of the forced swimming test, the state of despair is induced in the mouse by suspending it head down by its tail. Placed in that uncomfortable situation, the animal struggles vigorously to start with and then adopts an immobile posture. Antidepressant products reduce the duration of immobility of the animal.
The animals are male NMRI (IFFA-CREDO) mice (22-26 g) which are housed, in groups of 20, in transparent plastic cages (59×38×20 cm) on sawdust, with food and drink as desired. On the day of the test, each mouse is placed in a separate cage as soon as it has been treated (sub-cutaneously) with the product or the solvent. Thirty minutes later, the animal is suspended by the tail from a hook using an adhesive tape attached to the tail. The hook is connected to a tension sensor which transmits all the animal's movements to a central processor ([…]-TST 1 system, ITEM-LABO, France). The total duration (sec.) of immobility of the animal during the 6 minutes of the test is recorded automatically.
The differences in the duration of immobility between the treated groups (product) and the control group (solvent) are analysed statistically by ANOVA followed by Dunnett's test, wherein p<0.05.

[3] = target: T2, noradrenaline reuptake sites (Rattus norvegicus, UniProt Q63380); assay: Determination of the affinity for noradrenaline reuptake sites ([3H]-nisoxetine competition); format: binding; details: frontal cortex membranes, 2 nM [3H]-nisoxetine, 4 hours at 4° C., pH 7.4; read-out: pKi, noradrenaline reuptake sites (converted)
T2 construct: The membranes are prepared from frontal cortex of rat; from tissue; host or cells: rat frontal cortex membranes
T2 sequence (Q63380 1-617): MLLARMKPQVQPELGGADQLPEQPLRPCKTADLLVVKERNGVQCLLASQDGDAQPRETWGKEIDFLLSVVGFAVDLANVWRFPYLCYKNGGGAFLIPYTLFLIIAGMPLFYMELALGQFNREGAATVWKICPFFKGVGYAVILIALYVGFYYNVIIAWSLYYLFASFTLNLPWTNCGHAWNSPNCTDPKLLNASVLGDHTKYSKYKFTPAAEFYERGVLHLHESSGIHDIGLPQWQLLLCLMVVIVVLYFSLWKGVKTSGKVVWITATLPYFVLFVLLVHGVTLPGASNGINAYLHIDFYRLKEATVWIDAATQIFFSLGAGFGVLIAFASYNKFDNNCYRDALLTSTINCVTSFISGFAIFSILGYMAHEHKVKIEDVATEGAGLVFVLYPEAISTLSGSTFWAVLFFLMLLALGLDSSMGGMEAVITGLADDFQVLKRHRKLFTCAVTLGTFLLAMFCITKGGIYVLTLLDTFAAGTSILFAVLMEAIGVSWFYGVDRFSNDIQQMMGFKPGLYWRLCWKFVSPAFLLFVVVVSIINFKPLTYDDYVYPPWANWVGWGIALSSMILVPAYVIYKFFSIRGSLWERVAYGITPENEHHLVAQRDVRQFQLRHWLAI
Description: The binding isotherms are analysed by non-linear regression to determine the IC50 values. Those values are converted into a dissociation constant (Ki) using the Cheng-Prusoff equation: […]
as §1

In the case of `COc1ccc2c(c1)C(CN(C)C)(C1(O)CCCCC1)C2` (single isomer, unassigned; (-)) [Example 8, (-)-Isomer of 1-(N,N-dimethylaminomethyl)-1-(1-hydroxycyclohex-1-yl)-5-methoxybenzocyclobutane], the Ki (serotonin reuptake sites) is reported as 2 nM.
`COc1ccc2c(c1)CC2(CN(C)C)C1(O)CCCCC1` (stereo not drawn) [Example 4, 1-(N,N-Dimethylaminomethyl)-1-(1-hydroxycyclohex-1-yl)-4-methoxybenzocyclobutane] was tested, and the “Duration of immobility, %/control” value (mouse [1]; 0.63 mg/kg s.c.) was 94%, the Duration of immobility (mouse [1]; 0.63 mg/kg s.c.) was 157.3 ± 18.9 s and the “Duration of immobility, %/control” value (mouse [1]; 2.5 mg/kg s.c.) was 61%. For the same compound, the Duration of immobility (mouse [1]; 2.5 mg/kg s.c.) was 101.6 ± 57.3 s, the “Duration of immobility, %/control” value (mouse [1]; 10.0 mg/kg s.c.) was 4% and the Duration of immobility (mouse [1]; 10.0 mg/kg s.c., * p < 0.05) was 6.1 ± 6.1 s.
For `CNCCC(Oc1ccc(C(F)(F)F)cc1)c1ccccc1` (stereo not drawn) [fluoxetine, reference compound], the “Duration of immobility, %/control” value (mouse [1]; 2.5 mg/kg s.c.) was 94%, the “Duration of immobility, %/control” value (mouse [1]; 10.0 mg/kg s.c.) was 75% and the “Duration of immobility, %/control” value (mouse [1]; 40.0 mg/kg s.c.) was 73%. The “Immobility, %/control” value (mouse [2]; 40.0 mg/kg s.c.) was 91%, the Immobility (mouse [2]; 40.0 mg/kg s.c.) was 69.9 ± 17.8 s and the “Immobility, %/control” value (mouse [2]; 80.0 mg/kg s.c.) was 110%. For the same compound, the Immobility (mouse [2]; 80.0 mg/kg s.c.) was 84.3 ± 12.4 s.
For `COc1cccc2c1C(CN(C)C)(C1(O)CCCCC1)C2` (stereo not drawn) [Example 9, 1-(N,N-Dimethylaminomethyl)-1-(1-hydroxycyclohex-1-yl)-6-methoxybenzocyclobutane], the Ki [3] was 56.2 nM.
With `COc1ccc2c(c1)C(CN(C)C)(C1(O)CCCCC1)C2` (stereo not drawn) [Example 3, 1-(N,N-Dimethylaminomethyl)-1-(1-hydroxycyclohex-1-yl)-5-methoxybenzocyclobutane] the “Immobility, %/control” value (mouse [2]; 0.63 mg/kg s.c.) was 88%, the Immobility (mouse [2]; 0.63 mg/kg s.c.) was 70.4 ± 13.5 s and the “Immobility, %/control” value (mouse [2]; 2.5 mg/kg s.c.) was 51%. The Immobility (mouse [2]; 2.5 mg/kg s.c.) was 41.1 ± 9.6 s, the “Immobility, %/control” value (mouse [2]; 10.0 mg/kg s.c.) was 35% and the Immobility (mouse [2]; 10.0 mg/kg s.c., * p < 0.05) was 27.8 ± 9.6 s.
